The values that follow are results of earlier work, collected in US11345706B2, “Crystalline forms of Acalabrutinib” (Apotex Inc., priority 2017, dated 2022).

On to `CC#CC(=O)N1CCC[C@H]1c1nc(-c2ccc(C(=O)Nc3ccccn3)cc2)c2c(N)nccn12` [Acalabrutinib, 4-{8-amino-3-[(2S)-1-(but-2-ynoyl)pyrrolidin-2-yl]imidazo[1,5-a]pyrazin-1-yl}-N-(pyridin-2-yl)benzamide], for which the “Biopharmaceutics Classification System (BCS) solubility classification” value is “poorly soluble drug”. Also, the pH-dependent solubility entry (pH values of greater than 4, reported in U.S. Pat. No. 9,796,721 B2) was “practically insoluble”.
